Data taken from US20070265210A1, “Administration of C-glycoside compounds for protecting and/or activating gammadeltaT lymphocytes” (L'OREAL, priority 2006, published 2007).

System: human peripheral blood cells (lymphocytes)
Test: γδT lymphocyte proliferation induction, BrdU labeling after 3 days of culture
Assay type: cell-based
Design: key to cytotoxicity: *: cytotoxicity
Details: 3 days culture; for % stimulation relative to the control: BrdU
Method: The γδT lymphocyte proliferation-inducing activity is tested in the following way: human peripheral blood cells are cultured in the presence of an RPMI-type culture medium supplemented with L-glutamine (2 mM), penicillin/streptomycin (50 μg/50 IU/ml) and foetal calf serum (10%). The C-glycoside derivatives 1 and 2 are added at various concentrations (10 to 0.05 mM), along with phytohemagglutin (PHA at […]), a positive control for total lymphocyte proliferation.

| SMILES | % stimulation relative to the control (0.05 mM) [%] | % stimulation relative to the control (0.1 mM) [%] | % stimulation relative to the control (0.5 mM) [%] | % stimulation relative to the control (1 mM) [%] | cytotoxicity (5 mM) | % stimulation relative to the control (5 mM) [%] | cytotoxicity (10 mM) | % stimulation relative to the control (10 mM) [%] |
| --- | --- | --- | --- | --- | --- | --- | --- | --- |
| CC(=O)C[C@@H]1OC[C@@H](O)[C@H](O)[C@H]1O [Compound 1, 1-(C-β-D-xylopyranosyl)propan-2-one] | 108 | 115 | 84 | 131 | * | 106 | * | 74 |
| CC(=O)C[C@@H]1O[C@H](CO)[C@@H](O)[C@H](O)[C@H]1O [Compound 2, 1-(C-β-D-glucopyranosyl)propan-2-one] | 64 | 76 | 90 | 123 |  | 227 |  | 224 |
